From patent publication US20140363454A1, “Antibody-Drug Conjugates, Compositions and Methods of Use” (Igenica Biotherapeutics, Inc., priority 2013, published 2014)
pIC50: −log10 of the molar value. Like-named read-outs stand apart in the source and are kept apart here. Where a SMILES comes first, the peptide text is derived from it. [ ]: non-standard residue; d: D form. Dolaproine = CO[C@@H]([C@@H]1CCCN1)[C@@H](C)C(=O)O; Dil = CC[C@H](C)[C@H](NC)[C@@H](CC(=O)O)OC; NMeV = CN[C@H](C(=O)O)C(C)C

Tested on: BT474 (HER2+) cell line
Experiment: Standard cellular cytotoxicity assay, BT474 (HER2+) cell line
Type: cell-based, human
From the text: The cytotoxicity of tubulysins T1 and T2 was compared to the cytotoxicity of MMAF using the BT474 (HER2+) cell line in a standard cellular cytotoxicity assay.

CC[C@H](C)[C@H](NC(=O)[C@H]1CCCCN1C)C(=O)N(C)[C@H](C[C@@H](OC(C)=O)c1nc(C(=O)O)cs1)C(C)C [Entry T1]
pIC50 (Homo sapiens, BT-474): 7.96

CC[C@H](C)[C@H](NC(=O)[C@H]1CCCCN1C)C(=O)N(C)[C@H](C[C@@H](OC(C)=O)c1nc(C(=O)N[C@@H](Cc2ccccc2)C[C@H](C)C(=O)O)cs1)C(C)C [Entry T2]
pIC50 (Homo sapiens, BT-474): > 10.00

CC[C@H](C)[C@@H]([C@@H](CC(=O)N1CCC[C@H]1[C@H](OC)[C@@H](C)C(=O)N[C@@H](Cc1ccccc1)C(=O)O)OC)N(C)C(=O)[C@@H](NC(=O)[C@@H](NC)C(C)C)C(C)C [MMAF, monomethylauristatin F] (H-[NMeV]V[Dil][Dolaproine]F-OH)
pIC50: 7.03
